The results in this text go back to US7348440B2, “Mitotic kinesin inhibitors” (Merck & Co., Inc., priority 2002, dated 2008).

Each structure is given as a SMILES string. A value given as a limit tells only on which side of the number the result lay.

The target in one assay is T1, human KSP motor domain (KSP(367H)) (Homo sapiens, UniProt P52732).
T1 construct: were used to amplify the motor domain and the neck linker region; made in house; host or cells: E. coli BL21 (DE3), pRSETa vector
T1 sequence (P52732 18-359 limits assumed): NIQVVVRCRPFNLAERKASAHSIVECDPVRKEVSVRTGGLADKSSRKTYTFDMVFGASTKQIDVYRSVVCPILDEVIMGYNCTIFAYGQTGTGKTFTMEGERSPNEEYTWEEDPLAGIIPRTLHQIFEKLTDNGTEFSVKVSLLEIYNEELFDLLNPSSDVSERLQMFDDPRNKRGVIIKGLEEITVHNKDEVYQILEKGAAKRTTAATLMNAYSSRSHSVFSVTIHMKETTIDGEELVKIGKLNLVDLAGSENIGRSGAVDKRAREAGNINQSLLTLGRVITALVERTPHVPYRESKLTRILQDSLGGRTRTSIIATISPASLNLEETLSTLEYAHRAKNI
The assay can be described thus: Kinesin ATPase In Vitro Assay. It counts as biochemical.
Conditions: not given
As to the method:
I. Kinesin ATPase In Vitro Assay
The N-terminal primer 5′-[…] (SEQ.ID.NO.: 1) and the C-terminal primer 5′-[…] […] (SEQ.ID.NO.: 2) were used to amplify the motor domain and the neck linker region. The PCR products were digested with AseI and XhoI, ligated into the NdeI/XhoI digestion product of pRSETa (Invitrogen) and transformed into E. coli BL21 (DE3).
Cells were grown at 37° C. to an OD600 of 0.5. After cooling the culture to room temperature expression of KSP was induced with 100 μM IPTG and incubation was continued overnight. Cells were pelleted by centrifugation and washed once with ice-cold PBS. Pellets were flash-frozen and stored −80° C.
Cell pellets were thawed on ice and resuspended in lysis buffer (50 mM K-HEPES, pH 8.0, 250 mM KCl, 0.1% Tween, 10 mM imidazole, 0.5 mM Mg-ATP, 1 mM PMSF, 2 mM benzimidine, 1× complete protease inhibitor cocktail (Roche)). Cell suspensions were incubated with 1 mg/ml lysozyme and 5 mM β-mercaptoethanol on ice for 10 minutes, followed by sonication (3×30 sec). All subsequent procedures were performed at 4° C. Lysates were centrifuged at 40,000×g for 40 minutes. Supernatants were diluted and loaded onto an SP Sepharose column (Pharmacia, 5 ml cartridge) in buffer A (50 mM K-HEPES, pH 6.8, 1 mM MgCl2, 1 mM EGTA, 10 μM Mg-ATP, 1 mM DTT) and eluted with a 0 to 750 mM KCl gradient in buffer A. Fractions containing KSP were pooled and incubated with Ni-NTA resin (Qiagen) for one hour. The resin was washed three times with buffer B (Lysis buffer minus PMSF and protease inhibitor cocktail), followed by three 15-minute incubations and washes with buffer B. Finally, the resin was incubated and washed for 15 minutes three times with buffer C (same as buffer B except for pH 6.0) and poured into a column. KSP was eluted with elution buffer (identical to buffer B except for 150 mM KCl and 250 mM imidazole). KSP-containing fractions were pooled, made 10% in sucrose, and stored at −80° C.
Microtubules are prepared from tubulin isolated from bovine brain. Purified tubulin (>97% MAP-free) at 1 mg/ml is polymerized at 37° C. in the presence of 10 μM paclitaxel, 1 mM DTT, 1 mM GTP in BRB80 buffer (80 mM K-PIPES, 1 mM EGTA, 1 mM MgCl2 at pH 6.8). The resulting microtubules are separated from non-polymerized tubulin by ultracentrifugation and removal of the supernatant. The pellet, containing the microtubules, is gently resuspended in 10 μM paclitaxel, 1 mM DTT, 50 μg/ml ampicillin, and 5 μg/ml chloramphenicol in BRB80.
The kinesin motor domain is incubated with microtubules, 1 mM ATP (1:1 MgCl2: Na-ATP), and compound at 23° C. in buffer containing 80 mM K-HEPES (pH 7.0), 1 mM EGTA, 1 mM DTT, 1 mM MgCl2, and 50 mM KCl. The reaction is terminated by a 2-10 fold dilution with a final buffer composition of 80 mM HEPES and 50 mM EDTA (or, alternately, with a 1:1 addition of reaction volume to stop buffer(1.8M KCl and 50 mM EDTA)). Free phosphate from the ATP hydrolysis reaction is measured via a quinaldine red/ammonium molybdate assay by adding a 1.5 times volume of quench C (e.g., to a mixture of 40 μl reaction volume+40 μl stop buffer is then added 120 μl quench C). […] Quench C is a 2:1 ratio of quench A:quench B The reaction is incubated for 5-10 minutes at 23° C., and the absorbance of the phospho-molybdate complex is measured at 540 nm.
The term IC50 denotes the concentration that inhibits the measured activity by half. `CN(C(=O)N1CC(c2cc(F)ccc2F)=C[C@H]1c1ccccc1)C1CCNCC1` [18-4, (2S)-4-(2,5-Difluorophenyl)-N-methyl-2-phenyl-N-piperidin-4-yl-2,5-dihydro-1H-pyrrole-1-carboxamide]: the IC50 is at most 50 µM.

Staying with this assay, now noted: kinesin motor domain incubated with microtubules, 1 mM ATP and compound at 23° C.; free phosphate by quinaldine red/ammonium molybdate, absorbance 540 nm; read-out: IC50.
Turning to `CC(C)(C)OC(=O)N1CC(OS(=O)(=O)C(F)(F)F)=C[C@H]1c1ccccc1` [compound 54, (2S)-tert-butyl 2-phenyl-4-{[(trifluoromethyl)sulfonyl]oxy}-2,5-dihydro-1H-pyrrole-1-carboxylate], the IC50 is at most 50 µM.

`CN(C(=O)N1CC(c2cc(Cl)ccc2F)=C[C@H]1c1ccccc1)[C@@H]1CCNC1` [18b-8, (2S)-4-(5-Chloro-2-fluorophenyl)-N-methyl-2-phenyl-N-[(3R)-pyrrolidin-3-yl]-2,5-dihydro-1H-pyrrole-1-carboxamide]: the IC50 was at most 50 µM.

With `CN(C)C(=O)N1CC(c2cc(F)ccc2Cl)=CC1c1ccccc1` (stereo not shown) [1-6, 4-(2-chloro-5-fluorophenyl)-N,N-dimethyl-2-phenyl-2,5-dihydro-1H-pyrrole-1-carboxamide], the IC50 was at most 50 µM.

As for `CC(=O)N1CC(c2cc(F)ccc2F)=CC1c1ccccc1` (stereo not shown) [9-1, 1-acetyl-4-(2,5-difluorophenyl)-2-phenyl-2,5-dihydro-1H-pyrrole], the half-maximal inhibitory concentration (IC50) is at most 50 µM.

In the case of `CN(C)CCS(=O)(=O)N1CC(c2cc(F)ccc2F)=CC1c1ccccc1` (stereo not shown) [8-2, 2-{[4-(2,5-difluorophenyl)-2-phenyl-2,5-dihydro-1H-pyrrol-1-yl]sulfonyl}-N,N-dimethylethanamine], the IC50 is at most 50 µM.

`CN(C)C(=O)N1CC(c2cc(C(F)(F)F)ccc2F)C=C1c1ccccc1` (stereo not shown) [3-2, 3-[2-fluoro-5-(trifluoromethyl)phenyl]-N,N-dimethyl-5-phenyl-2,3-dihydro-1H-pyrrole-1-carboxamide]: the IC50 is at most 50 µM.

As for `CC(C)(N)C(=O)N1CC(c2cc(F)ccc2F)=CC1c1ccccc1` (stereo not shown) [12-1, 1-[4-(2,5-difluorophenyl)-2-phenyl-2,5-dihydro-1H-pyrrol-1-yl]-2-methyl-1-oxopropan-2-amine], the IC50 was at most 50 µM.

In the case of `CC(C)(O)C(=O)N1CC(c2cc(F)ccc2F)=CC1c1ccccc1` (stereo not shown) [11-1, 1-[4-(2,5-difluorophenyl)-2-phenyl-2,5-dihydro-1H-pyrrol-1-yl]-2-methyl-1-oxopropan-2-ol], the IC50 is at most 50 µM.

Take `[C-]#[N+]c1ccc(F)c(C2=CC(c3ccccc3)N(C(=O)N(C)C)C2)c1` (stereo not shown) [13-1, 4-(2-fluoro-5-isocyanophenyl)-N,N-dimethyl-2-phenyl-2,5-dihydro-1H-pyrrole-1-carboxamide]: the half-maximal inhibitory concentration (IC50) is at most 50 µM.

As for `CN(CC1CCNCC1)C(=O)N1CC(c2cc(F)ccc2F)=C[C@H]1c1ccccc1` [18a-6, (2S)-4-(2,5-Difluorophenyl)-N-methyl-2-phenyl-N-(piperidin-4-ylmethyl)-2,5-dihydro-1H-pyrrole-1-carboxamide], the IC50 was at most 50 µM.

On to `NCCS(=O)(=O)N1CC(c2cc(F)ccc2F)=CC1c1ccccc1` (stereo not shown) [7-2, 2-{[4-(2,5-difluorophenyl)-2-phenyl-2,5-dihydro-1H-pyrrol-1-yl]sulfonyl}ethanamine], for which the IC50 was at most 50 µM.

In the case of `CCS(=O)(=O)C(C)CN1CC(c2cc(F)ccc2F)=C[C@H]1c1ccccc1` (single isomer, unassigned) [38-1], the IC50 was at most 50 µM.
